Where a SMILES comes first, the peptide text is derived from it. [ ]: non-standard residue; d: D form. dTrp(2-Me) = Cc1[nH]c2ccccc2c1C[C@@H](N)C(=O)O
Tests used:
human heart membranes = assay: binding of peptides on human heart membranes (displacement of radiolabelled peptide); details: FIG. 1
Text: The binding abilities of certain peptides according to the invention compared to conventional peptides on human heart membranes are shown in FIG. 1. […]
Peptide A is in accordance with the invention, while peptides B-F are comparative. As shown in the figure, peptide A provided inhibition (i.e., displacement) of ^125 I-Tyr-Ala-His-D-Mrp-Ala-Trp-D-Phe-Lys-NH2 in a proportion of about 75%, whereas peptides B-F only provided about 5 to less than 35%. The greater binding affinities for the peptides of the invention illustrate that these peptides directly operate on specific receptors of heart tissue to achieve normalization of cardiac pressure.

[1] = tested on: growth hormone deficient rats; details: cited from earlier work

Row | inhibition (i.e., displacement) of 125I-Tyr-Ala-His-D-Mrp-Ala-Trp-D-Phe-Lys-NH2 (human heart membranes) | Compound | effect on worsening of cardiac dysfunction [1]
1 | about 75% | [S,S-Spiro(Pro-Leu )]-D-Mrp-D-Trp-Phe-Lys-NH2 [peptide A] | –
2 | – | Cc1[nH]c2ccccc2c1C[C@@H](NC(=O)[C@@H](N)Cc1cnc[nH]1)C(=O)N[C@@H](C)C(=O)N[C@@H](Cc1c[nH]c2ccccc12)C(=O)N[C@H](Cc1ccccc1)C(=O)N[C@@H](CCCCN)C(N)=O [Hexarelin, His-D-2-methyl-Trp-Ala-Trp-D-Phe-Lys-NH2] (H-H[dTrp(2-Me)]AW[dF]K-NH2) | reverse the worsening of cardiac dysfunction

Source: patent publication US6025471A, “Diazaspiro, azepino and azabicyclo therapeutic peptides” (priority 1998, dated 2000)
